According to patent US6528528B2 (Warner-Lambert Company, priority 1997, dated 2003):
Like-named read-outs stand apart in the source and are kept apart here.

What was measured:
[1] = molecular target: T1, rabbit reticulocyte 15-LO (Oryctolagus cuniculus, UniProt P12530); test: Rabbit Reticulocyte 15-LO Assay (h15LO); assay type: biochemical; conditions: for IC50: 2U rabbit reticulocyte 15-LO, 174 μM linoleic acid, 15 minutes at 4° C.
T1 construct: Fifteen-lipoxygenase was obtained from phenylhydrazine-treated rabbits and purified per the method of Rapoport; from tissue; host or cells: reticulocytes of phenylhydrazine-treated rabbits
T1 sequence (P12530 1-663): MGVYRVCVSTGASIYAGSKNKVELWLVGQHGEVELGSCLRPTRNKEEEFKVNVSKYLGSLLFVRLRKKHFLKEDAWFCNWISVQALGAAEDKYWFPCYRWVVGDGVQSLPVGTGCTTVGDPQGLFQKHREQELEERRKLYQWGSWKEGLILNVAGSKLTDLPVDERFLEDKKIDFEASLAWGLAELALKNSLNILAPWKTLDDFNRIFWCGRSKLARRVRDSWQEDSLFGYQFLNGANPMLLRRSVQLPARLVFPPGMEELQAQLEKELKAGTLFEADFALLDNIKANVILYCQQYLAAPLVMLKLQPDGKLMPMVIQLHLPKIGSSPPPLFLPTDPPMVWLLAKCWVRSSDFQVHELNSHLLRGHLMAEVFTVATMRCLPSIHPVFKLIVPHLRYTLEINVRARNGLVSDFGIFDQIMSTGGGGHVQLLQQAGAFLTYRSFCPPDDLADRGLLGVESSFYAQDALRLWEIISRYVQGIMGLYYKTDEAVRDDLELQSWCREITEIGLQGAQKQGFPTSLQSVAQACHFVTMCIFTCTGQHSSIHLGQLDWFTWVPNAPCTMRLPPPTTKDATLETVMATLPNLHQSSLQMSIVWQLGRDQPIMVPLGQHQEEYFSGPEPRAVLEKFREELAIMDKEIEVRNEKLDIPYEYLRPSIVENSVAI
How it was run: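 Linoleic acid oxidation to 13-HPODE measured at 4° C. over 15 minutes, using 174 μM substrate and 2U enzyme purified from phenylhydrazine-treated rabbits in PBS/0.2% Na cholate. Product peak areas calibrated with authentic 13-HODE; inhibition expressed versus maximal reaction.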

[2] = Table 1, read-out: h15LO % Inhibition at 10 μM
[3] = 0.25 h, Table 2, read-out: h15LO % @ 10 μM

Row | Structure (SMILES) | inhibition at 10 µM [1, 2] | melting point | IC50 ([1]; Table 1) | IC50 ([1]; Table 2) | inhibition at 10 µM [1, 3]
1 | O=C(Nc1ccccc1)c1cccc(Nc2ccccc2)c1 [Example 25, 3-Phenylamino-N-phenyl-benzamide] |  | 134 to 135 °C |  | 6430 nM | 
2 | COc1ccccc1Nc1cccc(C(=O)Nc2ccccc2)c1 [Example 27, 3-(2-Methoxy-phenylamino)-N-phenyl-benzamide] |  | 153 to 154 °C |  |  | 48%
3 | COc1ccccc1Nc1cc(C(=O)Nc2ccccc2)ccc1OC [Example 29, 3-(2-Methoxy-phenylamino)-4-methoxy-N-phenyl-benzamide] |  | 155 to 156 °C |  | > 3000 nM | 
4 | COc1ccc(C(=O)Nc2ccccc2)cc1Nc1cccc(Cl)c1 [Example 31, 3-(3-Chloro-phenylamino)-4-methoxy-N-phenyl-benzamide] |  | 168 to 170 °C |  | 10 nM | 
5 | COc1ccc(C(=O)Nc2ccccc2)cc1Nc1cccc(C)c1 [Example 32, 3-(3-Methyl-phenylamino)-4-methoxy-N-phenyl-benzamide] |  | 160 to 161 °C |  | 23 nM | 
6 | COc1ccc(C(=O)Nc2ccccc2)cc1Nc1cccc([N+](=O)[O-])c1 [Example 33, 3-(3-Nitro-phenylamino)-4-methoxy-N-phenyl-benzamide] |  | 220 to 221 °C |  | 12 nM | 
7 | COc1ccc(C(=O)Nc2ccccc2)cc1Nc1ccc(C)cc1 [Example 34, 3-(4-Methyl-phenylamino)-4-methoxy-N-phenyl-benzamide] |  | 187 to 188 °C |  | 29 nM | 
8 | COc1ccc(C(=O)Nc2ccccc2)cc1Nc1cc(C)cc(C)c1 [Example 36, 3-(3,5-Dimethyl-phenylamino)-4-methoxy-N-phenyl-benzamide] |  | 198 to 199 °C |  | 11 nM | 
9 | O=C(Nc1ccccc1)c1ccc(F)c(Nc2ccccc2)c1 [Example 37, 3-Phenylamino-4-fluoro-N-phenyl-benzamide] |  | 132 to 133 °C |  | 2940 nM | 
10 | CCc1ccc(C(=O)Nc2ccccc2)cc1Nc1cccc(C(F)(F)F)c1 [Example 41, 4-Ethyl-3-(3-trifluoromethyl-phenylamino)-N-phenyl-benzamide] |  | 133 to 134 °C |  |  | 65%
11 | CCOc1ccc(C(=O)Nc2ccccc2)cc1Nc1cccc(C(F)(F)F)c1 [Example 42, 4-Ethoxy-3-(3-trifluoromethyl-phenylamino)-N-phenyl-benzamide] |  | 184 to 185 °C |  | 410 nM | 
12 | CSc1ccc(C(=O)Nc2ccccc2)cc1Nc1cccc(C(F)(F)F)c1 [Example 43, 4-Methylsulfanyl-3-(3-trifluoromethyl-phenylamino)-N-phenyl-benzamide] |  | 169 to 170 °C |  | 73 nM | 
13 | COc1ccc(C(=O)Nc2ccccc2)cc1Nc1ccc(C2=NC(C)(C)CO2)cc1 [Example 44, 3-[4-(4,4-Dimethyl-4,5-dihydro-oxazol-2-yl)-phenylamino]-4-methoxy-N-phenyl-benzamide] |  | 221 to 222 °C |  | 25 nM | 
14 | COc1ccc(C(=O)Nc2cccnc2)cc1Nc1cccc(C(F)(F)F)c1 [Example 45, 4-Methoxy-3-(3-trifluoromethyl-phenylamino)-N-(3-pyridyl)-benzamide] |  | 184 to 185 °C |  | 440 nM | 
15 | COc1ccc(C(=O)Nc2ccccc2)cc1NCc1ccccc1 [Example 50, 3-Benzylamino-4-methoxy-N-phenyl-benzamide] |  | 164 to 165 °C |  | 846 nM | 
16 | COc1ccc(C(=O)Nc2ccccc2)cc1NCc1ccc(OC)c(OC)c1 [Example 52, 3-(3,4-Dimethoxy-benzylamino)-4-methoxy-N-phenyl-benzamide] |  | 187 to 188 °C |  |  | 62%
17 | O=C(Nc1ccccc1)c1cccc(Oc2ccccc2)c1 [Example 53, 3-Phenoxy-N-phenyl-benzamide] |  | 111 to 112 °C |  |  | 57%
18 | COc1ccc(C(=O)Nc2ccccc2)cc1Oc1ccccc1 [Example 54, 3-Phenoxy-4-methoxy-N-phenyl-benzamide] |  | 200 to 201 °C |  |  | 60%
19 | COc1ccc(C(=O)Oc2ccccc2)cc1Nc1ccccc1 [Example 55, 3-(Phenylamino)-4-methoxybenzoic Acid, Phenyl Ester] |  | 130 to 131 °C |  |  | 54%
20 | COc1ccc(NC(=O)c2ccc(O)c(Nc3cc(Cl)cc(Cl)c3)c2)cc1 [Example 57, 3-(3,5-Dichloro-phenylamino)-4-hydroxy-N-(4-methoxyphenyl)-benzamide] |  | 186 to 187 °C |  | 165 nM | 
21 | Cc1ccc(NC(=O)c2ccc(O)c(Nc3cc(Cl)cc(Cl)c3)c2)cc1 [Example 58, 3-(3,5-Dichloro-phenylamino)-4-hydroxy-N-(4-methylphenyl)-benzamide] |  | 179 to 183 °C |  | 80 nM | 

Other lines, results leading:

Row | inhibition at 10 µM [1, 2] | melting point | IC50 ([1]; Table 1) | IC50 ([1]; Table 2) | inhibition at 10 µM [1, 3] | Structure (SMILES)
22 | 79% | 138 to 142 °C |  |  |  | COc1ccc(C(=O)Nc2ccc(C)c(C)c2)cc1N [Example 6, 3-Amino-4-methoxy-N-(3,4-dimethylphenyl)-benzamide]
23 | 67% | 190 to 194 °C |  |  |  | COc1ccc(C(=O)Nc2ccc(C)cc2)cc1N [Example 7, 3-Amino-4-methoxy-N-(4-methylphenyl)-benzamide]
24 |  | 164 to 167 °C | 157 nM |  |  | COc1ccc(C(=O)Nc2ccc(F)cc2)cc1N [Example 8, 3-Amino-4-methoxy-N-(4-fluorophenyl)-benzamide]
25 | 38% | 167 to 170 °C |  |  |  | Nc1cc(C(=O)Nc2ccccc2)ccc1F [Example 9, 3-Amino-4-fluoro-N-phenyl-benzamide]
26 | 42% | 189 to 190 °C |  |  |  | CCOc1ccc(C(=O)Nc2ccccc2)cc1N [Example 10, 3-Amino-4-ethoxy-N-phenyl-benzamide]
27 |  | 155 to 162 °C | 390 nM |  |  | COc1ccc(C(=O)Nc2cc(C)cc(C)c2)cc1N [Example 11, 3-Amino-4-methoxy-N-(3,5-dimethylphenyl)-benzamide]
28 |  | 153 to 157 °C | 73 nM |  |  | COc1ccc(C(=O)Nc2ccc(C)c(Cl)c2)cc1N [Example 12, 3-Amino-4-methoxy-N-(3-chloro-4-methylphenyl)-benzamide]
29 | 68% | 166 to 168 °C |  |  |  | COc1ccc(C(=O)Nc2ccc(F)cc2F)cc1N [Example 14, 3-Amino-4-methoxy-N-(2,4-difluorophenyl)-benzamide]
30 |  | 171 to 172 °C | 9 nM |  |  | COc1ccc(C(=O)Nc2ccc(F)c(F)c2)cc1N [Example 15, 3-Amino-4-methoxy-N-(3,4-difluorophenyl)-benzamide]
31 |  | 144 to 146 °C | 79 nM |  |  | COc1ccc(C(=O)Nc2cccc(Cl)c2)cc1N [Example 16, 3-Amino-4-methoxy-N-(3-chlorophenyl)-benzamide]
32 | 65% | 111 to 113 °C |  |  |  | CCc1ccc(C(=O)Nc2ccccc2)cc1N [Example 17, 3-Amino-4-ethyl-N-phenyl-benzamide]
33 |  | 115 to 117 °C | 2510 nM |  |  | CCc1ccc(C(=O)Nc2ccc(Cl)c(Cl)c2)cc1N [Example 18, 3-Amino-4-ethyl-N-(3,4-dichlorophenyl)-benzamide]
34 |  | 108 to 110 °C | 1100 nM |  |  | CCc1ccc(C(=O)Nc2ccc(F)c(F)c2)cc1N [Example 19, 3-Amino-4-ethyl-N-(3,4-difluorophenyl)-benzamide]
35 |  | 143 to 145 °C | 203 nM |  |  | CSc1ccc(C(=O)Nc2ccccc2)cc1N [Example 20, 3-Amino-4-methylsulfanyl-N-phenyl-benzamide]
36 |  | 215 to 218 °C | 26 nM |  |  | COc1ccc(NC(=O)c2ccc(Cl)c(Cl)c2)cc1N [Example 23, 3,4-Dichloro-N-(3-amino-4-methoxyphenyl)-benzamide]
37 |  | 151 to 152 °C |  | 50 nM |  | COc1ccc(C(=O)Nc2ccc(F)cc2)cc1Nc1ccccc1 [Example 39, 3-Phenylamino-4-methoxy-N-(4-fluorophenyl)-benzamide]
38 |  | 199 to 200 °C |  | 20 nM |  | COc1ccc(C(=O)Nc2ccc(F)cc2)cc1Nc1cc(C)cc(C)c1 [Example 46, 4-Methoxy-3-(3,5-dimethyl-phenylamino)-N-(4-fluorophenyl)-benzamide]
39 |  | 166 to 169 °C |  | 28 nM |  | COc1ccc(C(=O)Nc2ccc(F)c(F)c2)cc1Nc1cccc(C(F)(F)F)c1 [Example 48, 4-Methoxy-3-(3-trifluoromethyl-phenylamino)-N-(3,4-difluorophenyl)-benzamide]
